row,SMILES,melting point [°C]
1,O=c1nc(-c2ccsc2)c2c(=O)nc(-c3ccsc3)c1=2,> 400
2,Brc1ccc(N2CCC(Cc3ccccc3)CC2)nc1,78
3,Cc1c(N2CCCCC2)ccnc1CSc1nc2cc(N3CCCCC3)c(F)cc2[nH]1,161 to 162
4,CCCCCc1ccc(C(N)C(=O)O)[nH]1 (stereo not drawn),190 to 195
5,COc1cc2c3c(nc4ccccc4c3c1)-c1ccccc1N2C,214 to 216
6,CN1CCN(c2cc(Cl)cc3c2c(=O)n(Cc2ccc(N)cc2)c(=O)n3Cc2ccccc2)CC1,93 to 96
7,CCOC(=O)C(C)Oc1ccc(C(C)=O)cc1 (stereo not drawn),49.6
8,CC1C(=S)Nc2c1cc(F)c(F)c2F (stereo not drawn),177 to 178
9,CCCC(C)(c1ccc(O)cc1)c1ccc(O)cc1,151 to 152
10,CCCCCCCCCCC(O)C1CCC(C2CCC(C(O)CCCCCCCCCC(O)CC3=CC(C)OC3=O)O2)O1 (stereo not drawn),69 to 70
11,CC(C)(C)c1ccc(P2Oc3ccccc3-c3ccccc32)cc1 (stereo not drawn),90 to 92
12,COc1ccc(C(=O)C(Br)CC2CCCCC2)c(OC)c1 (stereo not drawn),83 to 89
13,CN1Cc2c(C(=O)OC(C)(C)C)ncn2-c2cccc(C#N)c2C1=O,213 to 215
14,COc1cc(C(=O)O)ccc1Oc1ccccc1N,192 to 194
15,COc1cc2nc(C(C)(C)C)sc2cc1NC(=S)N1CCN(CCO)CC1,161 to 162
16,N#Cc1ccc(N2Cc3ccccc3C2)c2ccccc12,156 to 158
17,Cc1noc(NS(=O)(=O)c2cc(Br)c(Cl)s2)c1Br,143 to 145
18,O=C(NCCCCCCNC(=O)Nc1cccnc1)Nc1cccnc1,197 to 199
19,COc1cc(C)c(C(=O)c2c(OC)cnc(Cl)c2C(F)(F)F)c(OC)c1OC,117 to 119
20,N#Cc1ccc(CBr)c([N+](=O)[O-])c1,85 to 89
21,COc1cc(OC)cc(C(=O)N[C@H]2CCN(C)C[C@H]2c2ccccc2)c1 (relative stereo),123 to 124
22,Cc1nc2c(n1C)CCCC2=O,98.1
23,O=[N+]([O-])c1c(Br)cccc1CS(=O)(=O)c1ccccc1,138 to 141
24,O=C(Nc1cccc(C(F)(F)F)c1)C12CC3CC(CC(C3)C1)C2,171 to 174
25,Cc1nc2ncnn2c(O)c1F,273
26,N#CCOc1c(Br)cc(Br)cc1C=O,125 to 130
27,CC(Oc1cc(O)ccn1)C(F)(F)F (stereo not drawn),67 to 69
28,CCCCCCCN(CCOCCSc1nc(-c2ccc(OC)cc2)c(-c2ccc(OC)cc2)[nH]1)C(=O)NC(C)C,85 to 87

# Now from value to compound:
row,melting point [°C],SMILES
1,288 to 290,CCOC(=O)c1cnc2c3c(ccc2c1Cl)C(=O)C(C(C)=O)C=N3 (stereo not drawn)
2,208 to 209,O=C(c1cc(Br)cc(Br)c1)c1cc(Br)cc(Br)c1
3,110 to 112,O=C(CNc1ccccc1)Nc1ccc(Cl)c(Cl)c1
4,118 to 120,Oc1ccc2cc(F)ccc2c1
5,228,COC(=O)c1ncc(-c2ccccc2)nc1N
6,82 to 83,Cc1c(OCC(F)(F)F)ccnc1CSc1nc2ccccc2n1NCC(C)C
7,163 to 166,CN(C)C/C=C/C(=O)Nc1cc2c(Nc3ccc(F)c(Br)c3)ncnc2cn1
8,136 to 137,CCOC(=O)C(O)=Cc1cc(OCc2ccccc2)ncn1
9,148 to 150,CN(N)C(=S)Nc1ccc(F)cc1
10,208 to 209,Oc1cc(O)c2cc(-c3cc(F)cc(F)c3)oc2c1
11,228 to 232,CCOC(=O)c1cc(=O)c(O)c(-c2ccc(O)cc2)o1
12,237 to 238,Cc1nc(Nc2ccc(Cl)cc2)sc1-c1nc2ccccc2c(=O)n1-c1ccccc1Cl
13,82 to 83,CCCCCc1c(C=CC(=O)OC)nc(C(C)C)c(CO)c1-c1ccc(F)cc1
14,130 to 133,Cc1oc(-c2ccccc2)nc1CCOc1ccc(C=O)c2ccccc12
15,229 to 230,O=C(Nc1ccc(-n2nc(C(F)(F)F)cc2C(F)(F)F)cc1)Nc1ccc([N+](=O)[O-])cc1Cl

# From a melting point compilation (Tetko et al.; mined from patent text by program, amines drawn as free bases though some values may be those of a salt)
